In patent publication US20070010671A1, “Novel quinazoline derivatives and methods of treatment related to the use thereof” (priority 2003, published 2007) one finds class data, which are given here for 15 compounds.

The assay has as its target MCH receptor (Homo sapiens, UniProt Q99705). The assay is described as follows: High throughput functional screening FLIPR/FDSS6000: inhibition of MCH-evoked intracellular Ca2+ changes. The class given is cell-based. Conditions: class by percent of control at 10^-7 M or IC50. An outline of the steps: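 Antagonism is measured as inhibition of the intracellular calcium rise triggered by 50 nM MCH in cells bearing a constitutively active, non-endogenous form of the receptor. Cells are dye-loaded with Fluo4-AM and exposed to compound for 3 min at 37° C before agonist addition.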

Regarding `CN(C)c1nc(N[C@H]2CC[C@@H](CNC(=S)Nc3ccc([N+](=O)[O-])cc3Cl)CC2)nc2ccccc12` [compound 638], the class is 3 (Class 3: The value of percent of control at 10^−7 M was more than 60% or the value of IC50 was more than 200 nM.).
On to `CN(C)c1nc(N[C@H]2CC[C@@H](CNC(=S)Nc3ccccc3OC(F)F)CC2)nc2ccccc12` [compound 639], for which the class was 3 (Class 3: The value of percent of control at 10^−7 M was more than 60% or the value of IC50 was more than 200 nM.).
In the case of `CCc1ccccc1NC(=S)NC[C@H]1CC[C@@H](Nc2nc(N(C)C)c3ccccc3n2)CC1` [compound 640, N-[(cis-4-{[4-(dimethylamino)quinazolin-2-yl]amino}cyclohexyl)methyl]-N′-(2-ethylphenyl)thiourea] it was 2 (Class 2: The value of percent of control at 10^−7 M was from 40% to 60% or the value of IC50 was from 50 nM to 200 nM.); in that of `CN(C)c1nc(N[C@H]2CC[C@@H](CNC(=S)Nc3cc(C(F)(F)F)ccc3F)CC2)nc2ccccc12` [compound 641], 3 (Class 3: The value of percent of control at 10^−7 M was more than 60% or the value of IC50 was more than 200 nM.); in that of `CN(C)c1nc(N[C@H]2CC[C@@H](CNC(=S)Nc3ccccc3F)CC2)nc2ccccc12` [compound 642], 3 (Class 3: The value of percent of control at 10^−7 M was more than 60% or the value of IC50 was more than 200 nM.).
Regarding `CN(C)c1nc(N[C@H]2CC[C@@H](CNC(=S)Nc3ccccc3I)CC2)nc2ccccc12` [compound 643], the class was 3 (Class 3: The value of percent of control at 10^−7 M was more than 60% or the value of IC50 was more than 200 nM.).
For `COc1cc([N+](=O)[O-])ccc1NC(=S)NC[C@H]1CC[C@@H](Nc2nc(N(C)C)c3ccccc3n2)CC1` [compound 644], the class is given as 3 (Class 3: The value of percent of control at 10^−7 M was more than 60% or the value of IC50 was more than 200 nM.).
Regarding `COc1ccc(C)cc1NC(=S)NC[C@H]1CC[C@@H](Nc2nc(N(C)C)c3ccccc3n2)CC1` [compound 645], the class was 3 (Class 3: The value of percent of control at 10^−7 M was more than 60% or the value of IC50 was more than 200 nM.).
With `CN(C)c1nc(N[C@H]2CC[C@@H](CNC(=S)Nc3cccc(SC(F)(F)F)c3)CC2)nc2ccccc12` [compound 646], the class was 3 (Class 3: The value of percent of control at 10^−7 M was more than 60% or the value of IC50 was more than 200 nM.).
In the case of `CN(C)c1nc(N[C@H]2CC[C@@H](CNC(=S)Nc3cc(Cl)cc(Cl)c3)CC2)nc2ccccc12` [compound 647] it was 3 (Class 3: The value of percent of control at 10^−7 M was more than 60% or the value of IC50 was more than 200 nM.); in that of `CN(C)c1nc(N[C@H]2CC[C@@H](CNC(=S)Nc3cc(F)cc(F)c3)CC2)nc2ccccc12` [compound 648], 3 (Class 3: The value of percent of control at 10^−7 M was more than 60% or the value of IC50 was more than 200 nM.).
In the case of `CN(C)c1nc(N[C@H]2CC[C@@H](CNC(=S)Nc3cccc(C#N)c3)CC2)nc2ccccc12` [compound 649, N-(3-ciyanophenyl)-N′-[(cis-4-{[4-(dimethylamino)quinazolin-2-yl]amino}cyclohexyl)methyl]thiourea] it was 3 (Class 3: The value of percent of control at 10^−7 M was more than 60% or the value of IC50 was more than 200 nM.); in that of `CN(C)c1nc(N[C@H]2CC[C@@H](CNC(=S)Nc3cccc(F)c3)CC2)nc2ccccc12` [compound 650], 3 (Class 3: The value of percent of control at 10^−7 M was more than 60% or the value of IC50 was more than 200 nM.); in that of `CN(C)c1nc(N[C@H]2CC[C@@H](CNC(=S)Nc3cccc(I)c3)CC2)nc2ccccc12` [compound 651], 3 (Class 3: The value of percent of control at 10^−7 M was more than 60% or the value of IC50 was more than 200 nM.).
In the case of `COc1cccc(NC(=S)NC[C@H]2CC[C@@H](Nc3nc(N(C)C)c4ccccc4n3)CC2)c1` [compound 652], the class is recorded as 3 (Class 3: The value of percent of control at 10^−7 M was more than 60% or the value of IC50 was more than 200 nM.).
